The target of this experiment is T1, Bile acid receptor (Homo sapiens, UniProt Q96RI1).
T1 sequence (Q96RI1 whole entry): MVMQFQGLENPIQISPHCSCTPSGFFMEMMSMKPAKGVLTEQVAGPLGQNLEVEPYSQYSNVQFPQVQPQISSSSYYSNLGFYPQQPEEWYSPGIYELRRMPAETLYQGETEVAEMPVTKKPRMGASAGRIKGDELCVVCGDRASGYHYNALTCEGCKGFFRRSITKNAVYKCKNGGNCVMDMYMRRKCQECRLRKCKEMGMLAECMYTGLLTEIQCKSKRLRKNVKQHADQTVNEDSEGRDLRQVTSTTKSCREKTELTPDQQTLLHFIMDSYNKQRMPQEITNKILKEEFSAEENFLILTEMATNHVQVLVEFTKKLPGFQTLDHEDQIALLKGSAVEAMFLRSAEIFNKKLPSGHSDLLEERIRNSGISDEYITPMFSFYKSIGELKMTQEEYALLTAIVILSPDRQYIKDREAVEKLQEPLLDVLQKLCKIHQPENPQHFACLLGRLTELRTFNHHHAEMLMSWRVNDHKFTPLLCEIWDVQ
Briefly: Agonist activity at FXR (unknown origin).

A word on the EC50: it is the concentration that produces a half-maximal response. A high value points to lower potency in that assay. Consider `CC(C)(C)c1ccc(-n2cnc3c(NC(=O)Cc4ccc(C(=O)O)cc4)cccc32)cc1`, for which the half-maximal effective concentration (EC50) came out at 0.78 µM.

(Values after ChEMBL document CHEMBL6103638, “Dual Modulator of FXR and HSD17B13: Revitalizing FXR Therapies in MASH” (J Med Chem, 2025).)
